{
  "source": "patent US20240360177A1",
  "about": "“PEPTIDES WITH ANTIMICROBIAL ACTIVITIES” (priority 2021, published 2024)",
  "note": "Like-named read-outs stand apart in the source and are kept apart here. Non-standard residues stand in square brackets, D forms with d. Residues, ends and D or L forms follow the SMILES beside them. αMeL = CC(C)C[C@](C)(N)C(=O)O; NBuGly = CCCCNCC(=O)O; Ava = NCCCCC(=O)O",
  "data": [
    {"molecule": "N=C(N)NCCC[C@@H](N)C(=O)N[C@@H](CCCNC(=N)N)C(=O)N[C@H](CCCNC(=N)N)C(=O)NCCCCC(=O)N[C@H](CCCNC(=N)N)C(=O)N[C@@H](CCCNC(=N)N)C(=O)N[C@H](CCCNC(=N)N)C(=O)NCCCCC(=O)N[C@H](CCCNC(=N)N)C(=O)N[C@@H](CCCNC(=N)N)C(=O)N[C@H](CCCNC(=N)N)C(=O)N[C@@H](CCCNC(=N)N)C(=O)NCCCCC(=O)N[C@H](CCCNC(=N)N)C(=O)N[C@@H](CCCNC(=N)N)C(=O)N[C@H](CCCNC(=N)N)C(=O)N[C@@H](CCCNC(=N)N)C(=O)O", "note": "[SEQ ID NO: 19, rRr-(Ava)-rRr-(Ava)-rRrR-(Ava)-rRrR] (H-[dR]R[dR][Ava][dR]R[dR][Ava][dR]R[dR]R[Ava][dR]R[dR]R-OH)", "values": [
      {"measurement": "MIC C. albicans", "setting": "C. albicans; 24 h", "value": 0.5, "unit": "µg/mL"},
      {"measurement": "MIC C. glabrata", "setting": "C. glabrata; 24 h", "value": 0.5, "unit": "µg/mL"},
      {"measurement": "MIC C. parapsilosis", "setting": "C. parapsilosis; 24 h", "value": 0.25, "unit": "µg/mL"},
      {"measurement": "MIC C. krusei", "setting": "C. krusei; 24 h", "value": 1, "unit": "µg/mL"},
      {"measurement": "MIC C. auris", "setting": "C. auris; 24 h", "value": 2, "unit": "µg/mL"},
      {"measurement": "MIC C. tropicalis", "setting": "C. tropicalis; 24 h", "value": 0.5, "unit": "µg/mL"},
      {"measurement": "MIC C. dubliniensis", "setting": "C. dubliniensis; 24 h", "value": 0.5, "unit": "µg/mL"}
    ]},
    {"molecule": "N=C(N)NCCC[C@@H](N)C(=O)N[C@@H](CCCNC(=N)N)C(=O)N[C@H](CCCNC(=N)N)C(=O)NCCCCC(=O)N[C@H](CCCNC(=N)N)C(=O)N[C@@H](CCCNC(=N)N)C(=O)N[C@H](CCCNC(=N)N)C(=O)NCCCCC(=O)N[C@H](CCCNC(=N)N)C(=O)N[C@@H](CCCNC(=N)N)C(=O)N[C@H](CCCNC(=N)N)C(=O)N[C@@H](CCCNC(=N)N)C(=O)NCCCCC(=O)N[C@H](CCCNC(=N)N)C(=O)N[C@@H](CCCNC(=N)N)C(=O)N[C@H](CCCNC(=N)N)C(=O)N[C@@H](CCCNC(=N)N)C(=O)N[C@@H](CCC(=O)O)C(=O)O", "note": "[SEQ ID NO: 20, rRr-(Ava)-rRr-(Ava)-rRrR-(Ava)-rRrR-Glu] (H-[dR]R[dR][Ava][dR]R[dR][Ava][dR]R[dR]R[Ava][dR]R[dR]RE-OH)", "values": [
      {"measurement": "MIC C. albicans", "setting": "C. albicans; ATCC 90028 or 90029, 24 hrs", "value": 0.5, "unit": "µg/mL"},
      {"measurement": "MIC C. glabrata", "setting": "C. glabrata; ATCC 90030, 24 hrs", "value": 1, "unit": "µg/mL"},
      {"measurement": "MIC C. parapsilosis", "setting": "C. parapsilosis; ATCC 22019, 24 hrs", "value": 0.25, "unit": "µg/mL"},
      {"measurement": "MIC C. krusei", "setting": "C. krusei; MMX 7135, 24 hrs", "value": 2, "unit": "µg/mL"},
      {"measurement": "MIC C. auris", "setting": "C. auris; CDC 386, 24 hrs", "value": 16, "unit": "µg/mL"},
      {"measurement": "MIC C. tropicalis", "setting": "C. tropicalis; ATCC 90874, 24 hrs", "value": 0.5, "unit": "µg/mL"},
      {"measurement": "MIC C. dubliniensis", "setting": "C. dubliniensis; ATCC MYA-578, 24 hrs", "value": 0.5, "unit": "µg/mL"}
    ]},
    {"molecule": "N=C(N)NCCC[C@@H](N)C(=O)N[C@@H](CCCNC(=N)N)C(=O)N[C@H](CCCNC(=N)N)C(=O)N[C@@H](CCCNC(=N)N)C(=O)NCCCCC(=O)N[C@H](CCCNC(=N)N)C(=O)N[C@@H](CCCNC(=N)N)C(=O)N[C@H](CCCNC(=N)N)C(=O)N[C@@H](CCCNC(=N)N)C(=O)NCCCCC(=O)N[C@H](CCCNC(=N)N)C(=O)N[C@@H](CCCNC(=N)N)C(=O)N[C@H](CCCNC(=N)N)C(=O)NCCCCC(=O)N[C@H](CCCNC(=N)N)C(=O)N[C@@H](CCCNC(=N)N)C(=O)N[C@H](CCCNC(=N)N)C(N)=O", "note": "[SEQ ID NO: 21, rRrR-(Ava)-rRrR-(Ava)-rRr-(Ava)-rRr-NH2] (H-[dR]R[dR]R[Ava][dR]R[dR]R[Ava][dR]R[dR][Ava][dR]R[dR]-NH2)", "values": [
      {"measurement": "MIC C. albicans", "setting": "C. albicans; 24 h", "value": 0.5, "unit": "µg/mL"},
      {"measurement": "MIC C. glabrata", "setting": "C. glabrata; 24 h", "value": 0.5, "unit": "µg/mL"},
      {"measurement": "MIC C. parapsilosis", "setting": "C. parapsilosis; 24 h", "value": 0.25, "unit": "µg/mL"},
      {"measurement": "MIC C. krusei", "setting": "C. krusei; 24 h", "value": 0.5, "unit": "µg/mL"},
      {"measurement": "MIC C. auris", "setting": "C. auris; 24 h", "value": 0.5, "unit": "µg/mL"},
      {"measurement": "MIC C. tropicalis", "setting": "C. tropicalis; 24 h", "value": 0.5, "unit": "µg/mL"},
      {"measurement": "MIC C. dubliniensis", "setting": "C. dubliniensis; 24 h", "value": 0.5, "unit": "µg/mL"}
    ]},
    {"molecule": "CCCCN(CC(=O)N[C@H](CCCNC(=N)N)C(=O)N[C@@H](CCCNC(=N)N)C(=O)N[C@H](CCCNC(=N)N)C(=O)N[C@@H](CCCNC(=N)N)C(N)=O)C(=O)[C@H](CCCNC(=N)N)NC(=O)[C@@H](CCCNC(=N)N)NC(=O)[C@H](CCCNC(=N)N)NC(=O)[C@@H](CCCNC(=N)N)NC(=O)CN(CCCC)C(=O)[C@@H](CCCNC(=N)N)NC(=O)[C@H](CCCNC(=N)N)NC(=O)[C@@H](CCCNC(=N)N)NC(=O)CN(CCCC)C(=O)[C@@H](CCCNC(=N)N)NC(=O)[C@H](CCCNC(=N)N)NC(=O)[C@H](N)CCCNC(=N)N", "note": "[SEQ ID NO: 35, rRr-(ButylGly)-rRr-(ButylGly)-rRrR-(ButylGly)-rRrR-NH2] (H-[dR]R[dR][NBuGly][dR]R[dR][NBuGly][dR]R[dR]R[NBuGly][dR]R[dR]R-NH2)", "values": [
      {"measurement": "MIC C. albicans", "setting": "C. albicans; 24 h", "value": 0.5, "unit": "µg/mL"},
      {"measurement": "MIC C. glabrata", "setting": "C. glabrata; 24 h", "value": 0.5, "unit": "µg/mL"},
      {"measurement": "MIC C. parapsilosis", "setting": "C. parapsilosis; 24 h", "value": 0.25, "unit": "µg/mL"},
      {"measurement": "MIC C. krusei", "setting": "C. krusei; 24 h", "value": 0.5, "unit": "µg/mL"},
      {"measurement": "MIC C. auris", "setting": "C. auris; 24 h", "value": 0.5, "unit": "µg/mL"},
      {"measurement": "MIC C. tropicalis", "setting": "C. tropicalis; 24 h", "value": 0.5, "unit": "µg/mL"},
      {"measurement": "MIC C. dubliniensis", "setting": "C. dubliniensis; 24 h", "value": 0.5, "unit": "µg/mL"}
    ]},
    {"molecule": "CC(C)C[C@](C)(NC(=O)[C@H](CCCNC(=N)N)NC(=O)[C@@H](CCCNC(=N)N)NC(=O)[C@H](CCCNC(=N)N)NC(=O)[C@@H](CCCNC(=N)N)NC(=O)[C@](C)(CC(C)C)NC(=O)[C@@H](CCCNC(=N)N)NC(=O)[C@H](CCCNC(=N)N)NC(=O)[C@@H](CCCNC(=N)N)NC(=O)[C@](C)(CC(C)C)NC(=O)[C@@H](CCCNC(=N)N)NC(=O)[C@H](CCCNC(=N)N)NC(=O)[C@H](N)CCCNC(=N)N)C(=O)N[C@H](CCCNC(=N)N)C(=O)N[C@@H](CCCNC(=N)N)C(=O)N[C@H](CCCNC(=N)N)C(=O)N[C@@H](CCCNC(=N)N)C(N)=O", "note": "[SEQ ID NO: 37, rRr-Leu(Me)-rRr-Leu(Me)-rRrR-Leu(Me)-rRrR-NH2] (H-[dR]R[dR][αMeL][dR]R[dR][αMeL][dR]R[dR]R[αMeL][dR]R[dR]R-NH2)", "values": [
      {"measurement": "MIC C. albicans", "setting": "C. albicans; 24 h", "value": 0.5, "unit": "µg/mL"},
      {"measurement": "MIC C. glabrata", "setting": "C. glabrata; 24 h", "value": 0.5, "unit": "µg/mL"},
      {"measurement": "MIC C. parapsilosis", "setting": "C. parapsilosis; 24 h", "value": 0.5, "unit": "µg/mL"},
      {"measurement": "MIC C. krusei", "setting": "C. krusei; 24 h", "value": 1, "unit": "µg/mL"},
      {"measurement": "MIC C. auris", "setting": "C. auris; 24 h", "value": 1, "unit": "µg/mL"},
      {"measurement": "MIC C. tropicalis", "setting": "C. tropicalis; 24 h", "value": 0.5, "unit": "µg/mL"},
      {"measurement": "MIC C. dubliniensis", "setting": "C. dubliniensis; 24 h", "value": 0.5, "unit": "µg/mL"}
    ]}
  ]
}
